The subject of this experiment is intracellular calcium ion concentration. Nature of the experiment: activity of increasing intracellular calcium ion concentration (method of Example 3 of WO 99/33976). As to conditions: compared with a standard product isolated from human placenta extract. It counts as cell-based.

Ends that are not written are not given here.

For the substance “human KiSS-1 peptide: Recombinant peptide of SEQ ID NO: 1 with C-terminal amide, cleaved from KiSS-1 peptide-CS23 fusion protein expressed in E. coli (GTSLSPPPESSGSRQQPGLSAPHSRQIPAPQGAVLVQREKDLPNYNWNSFGLRF-NH2)”, the “activity of increasing intracellular calcium ion concentration” value is “equivalent to that of a standard product isolated from human placenta extract”.

Values taken from US20030096956A1, “Process for producing kiss-1 peptide” (priority 1999, published 2003).
